Experimental data as given in publication PMC4063187 (Journal of the American Chemical Society, 2014).
Where two headings read alike, the source gives them in different places.

Key:
[1] = target: T1, ecDHFR (wild-type, l-DHFR) (Escherichia coli, UniProt P0ABQ4); experiment: steady-state absorbance at […] nm; format: biochemical; conditions: read-out: 25 °C, pH 7 / l-DHFR, MTEN buffer pH 7, 25 °C
T1 sequence (P0ABQ4 1-159): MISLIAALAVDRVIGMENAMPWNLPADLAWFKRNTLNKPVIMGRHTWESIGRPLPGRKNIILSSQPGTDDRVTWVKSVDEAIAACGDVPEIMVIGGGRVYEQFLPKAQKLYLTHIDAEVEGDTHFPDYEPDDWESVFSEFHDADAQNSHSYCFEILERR

[2] = target: T1, ecDHFR (wild-type, l-DHFR); experiment: stopped-flow tryptophan fluorescence quenching, koff/kon; format: binding
[3] = target: T1, ecDHFR (wild-type, l-DHFR); experiment: stopped-flow fluorescence; format: binding

Structure (SMILES): Nc1nc2c(c(=O)[nH]1)N=C(CNc1ccc(C(=O)N[C@@H](CCC(=O)O)C(=O)O)cc1)CN2 [DHF]
- Km ([1]; 100 μM NADPH): 0.53 ± 0.04 µM

Structure (SMILES): Nc1nc2ncc(CNc3ccc(C(=O)N[C@@H](CCC(=O)O)C(=O)O)cc3)nc2c(=O)[nH]1 [FA]
- Kd [2]: 3.22 ± 0.09 µM

Structure (SMILES): NC(=O)C1=CN([C@@H]2O[C@H](COP(=O)(O)OP(=O)(O)OC[C@H]3O[C@@H](n4cnc5c(N)ncnc54)[C@H](OP(=O)(O)O)[C@@H]3O)[C@@H](O)[C@H]2O)C=CC1 [NADPH]
- Kd [3]: 0.18 ± 0.09 µM
- Km ([1]; 100 μM DHF): 7.2 ± 0.8 µM
